What was measured:
[1] = Hypotension in the anesthetized dog by the intravenous route; type: in vivo
Procedure: In the use of the compounds of the invention to produce hypotensive effects in warm-blooded animals, administration by the injectable route is preferred, preferably the intravenous route.
Thus in the anesthetized dog by the intravenous route the dose to produce hypotension is from about 1 mg/kg. to about 200 mg/kg. and preferably from about 10 mg/kg. to about 100 mg/kg. Using this procedure the following results were obtained.

[2] = tested on: bronchoconstricting effects of a standard dose of acetylcholine; experiment: Bronchodilation by aerosol inhalation in the guinea pig (method of Rosenthale et al.); type: in vivo; design: dose or concentration left out as unconfirmed
Excerpt: In using the compounds of the invention to produce bronchodilating effects in warm-blooded animals, they may be administered in a variety of dosage forms: oral, injectable, and aerosol inhalation. Aerosol inhalation is a preferred method because of its rapid onset of action, great potency, and specificity of action. The particular dosage to obtain the bronchodilating effect will vary with the particular compound employed, the particular animal involved, and the degree of bronchodilation desired. […] The bronchodilation produced upon aerosol inhalation can be observed by the method of Rosenthale et al., J. Pharmacol. Exp. Ther., 178, 541 (1971). Using this procedure the following result was obtained.

Structure (SMILES)	Δb.p. ([1]; Dose 100 mg/kg.)	Percent Inhibition of the bronchoconstricting effects of a standard dose of acetylcholine [2]	Δb.p. ([1]; Dose 10 mg/kg.)
CCCCC[C@H](O)/C=C/[C@H]1CC[C@@](C)(O)[C@@H]1C/C=C\CCCC(=O)O [7-(5β-Hydroxy-2β-[(3S)-3-Hydroxy-Trans-1-Octenyl]-5α-Methyl-1α-Cyclopentyl)-Cis-5-Heptenoic Acid]	-19 mm. Hg	–	–
C#CC(O)(/C=C/[C@H]1CCC(O)(C#C)[C@@H]1C/C=C\CCCC(=O)O)CCCCC (stereo partly drawn) [7-[(5RS)-5-Ethynyl-2β-((3RS)-3-Ethynyl-3-Hydroxy-Trans-1-Octenyl)-5-Hydroxy-1α-Cyclopentyl]-Cis-5-Heptenoic Acid]	-26 mm. Hg	48%	–
CCCCC[C@H](O)/C=C/[C@H]1CC[C@](C)(O)[C@@H]1C/C=C\CCCC(=O)O [7-(5α-Hydroxy-2β-[(3S)-3-Hydroxy-Trans-1-Octenyl]-5β-Methyl-1α-Cyclopentyl)-Cis-5-Heptenoic Acid]	-23 mm. Hg	–	–
C#CC1(O)CC[C@H](/C=C/[C@@H](O)CCCCC)[C@H]1C/C=C\CCCC(=O)O (stereo partly drawn) [7-[(5RS)-5-Ethynyl-5-Hydroxy-2β-((3S)-3-Hydroxy-Trans-1-Octenyl)-1α-Cyclopentyl]-Cis-5-Heptenoic Acid]	–	–	-40 mm. Hg

From patent publication US4001315A, “Prostaglandin derivatives” (American Home Products Corporation, priority 1975, dated 1977)
